Data from patent US20230263817A1, “HIGH DOSE NICOTINAMIDE ADENINE DINUCLEOTIDE (NAD) PRECURSOR REGIMENS FOR REDUCTION OF INFLAMMATION IN HUMAN PATIENTS WITH PREEXISTING INFLAMMATION” (University of Washington, priority 2021, published 2023).

How the values were obtained:
[1] = system: peripheral blood mononuclear cells (PBMCs); assay: Randomized trial of NR in HFrEF: PBMC mitochondrial respiration; format: in vivo, human; conditions: Week 12 vs Week 0, NR group
Description: Peripheral Blood Mononuclear Cell (PBMC) Mitochondrial Function. PBMCs were isolated from freshly-collected whole blood by centrifugation in Sepmate™-50 PBMC isolation tubes (STEMCELL Technologies, Vancouver, BC, Canada; Cat. 85450). Isolated PBMCs were resuspended in Seahorse XF® medium (Agilent, Cat. 102353-100) and then plated (10^6 cells/well) onto Seahorse® (Agilent) 24-well plates. PBMC mitochondrial respiratory function was assessed by measuring the oxygen consumption rate (OCR) at baseline and maximal stimulated conditions as described in Zhou B, et al. (J Clin Invest. 2020, 130:6054-6063 (Experimental Example 1)). Exploratory Endpoints. The following endpoints were considered exploratory, as the Study was underpowered to detect differences.

[2] = system: NLRP3 and proinflammatory cytokine gene expressions in HF PBMCs; assay: RT-qPCR of NLRP3 and cytokine mRNA in Stage D HF PBMCs treated in vitro with NR; format: cell-based, human; conditions: 4-hour 1 mM NR vs vehicle
Description: (§1) PBMC and Monocyte Culture. Freshly isolated PBMCs or Monocytes from healthy or HF subjects were resuspended with RPMI medium plus 10% heat inactivated FBS. PBMCs (10^6 cells/well) were seeded in Seahorse 24-well plates and incubated at 37° C. in CO2 incubator with various proinflammatory triggers (Vehicle, MitoDAMP, LPS) and compounds (NR, MCC 950, MitoTempo, or LMT-28). After 4 hours incubation, the plate was centrifuged at 40 g for 10 minutes at room temperature without application of the brake to help cells attach to the bottom of the plate. The cells were washed twice and then brought up to 500 μL using Seahorse base medium (Agilent Technologies, supplemented with 1 mM pyruvate, 2 mM glutamine, and 10 mM glucose, pH 7.4).
IL6 ELISA. Isolated PBMCs (4×10^6 cells per sample) from healthy or HF participants were resuspended in RPMI medium containing 10% heat-inactivated FBS and treated with various proinflammatory triggers (Vehicle, MitoDAMP, LPS) and compounds (NR, MCC 950, MitoTempo, or LMT-28) to final PBMC concentrations of 10×10^6 cells per mL. See below for detailed descriptions of the reagents. […]
RNA Isolation and Quantitative PCR analysis. […] Real-time PCR was performed in the Corbett rotor gene 6000 real-time PCR machine using iQ™ SYBR® Green Supermix (Bio-rad) and expression levels of the indicated genes were calculated using the ΔΔCt method.

[3] = system: NLRP3 and pro-inflammatory cytokine (IL1β, IL6, IL18, TNFα) mRNA in healthy PBMCs; assay: RT-qPCR of NLRP3 and pro-inflammatory cytokine mRNA in healthy PBMCs treated in vitro; format: cell-based, human
Description: as §1
IL6 ELISA. Isolated PBMCs (4×10^6 cells per sample) from healthy or HF participants were resuspended in RPMI medium containing 10% heat-inactivated FBS and treated with various proinflammatory triggers (Vehicle, MitoDAMP, LPS) and compounds (NR, MCC 950, MitoTempo, or LMT-28) to final PBMC concentrations of 10×10^6 cells per mL. See below for detailed descriptions of the reagents. The samples were incubated in Eppendorf tubes at 37° C. in a 5% CO2 incubator with caps open for times designated in the brief description of drawings. The cultured PBMC samples were centrifuged at 8,000 RPM at room temperature. The supernatant was used for ELISA per the manufacture protocol using R&D Systems human IL6 kit (Cat #DY206-05). The cell pellets were stored in −80° C.
RNA Isolation and Quantitative PCR analysis. Total RNA was isolated from frozen PBMC pellets using Trizol (Invitrogen) per the manufacturer's instructions, and cDNA was synthesized using iScript™ Reverse Transcription Supermix (Bio-rad) per the manufacturer's instructions. Real-time PCR was performed in the Corbett rotor gene 6000 real-time PCR machine using iQ™ SYBR® Green Supermix (Bio-rad) and expression levels of the indicated genes were calculated using the ΔΔCt method.

NC(=O)c1ccc[n+]([C@@H]2O[C@H](CO)[C@@H](O)[C@H]2O)c1 [NR, nicotinamide riboside]
baseline (basal) PBMC mitochondrial respiration rates [1]: not changed | maximal PBMC respiration ([1]; did not reach statistical significance): marginal increase | reductions of NLRP3 and proinflammatory cytokine gene expressions [2]: minimal | proinflammatory cytokine gene expressions ([3]; 4-hour 10 ng/mL LPS with 1 mM NR relative to LPS alone): reducing | proinflammatory cytokine gene expressions ([3]; 4-hour MitoDAMP with 1 mM NR relative to MitoDAMP only): reduction
